Reference: patent publication EP4745134A1 (Jiangsu Yahong Meditech Co., Ltd., priority 2023, dated 2025)

Biological target: PRMT5-MTA (Homo sapiens, UniProt O14744)
Assay: Enzymatic inhibitory activity against PRMT5-MTA (AlphaScreen)
Format: biochemical
Conditions: read-out: IC50
Experimental: The AlphaScreen method was used to detect the enzymatic inhibitory activity of the compounds against PRMT5-MTA. 1 x Methyltransferase assay buffer IV (signalchem) was prepared as a solution for diluting each component for the enzymatic reaction. PRMT5/[…] protein of a final concentration of 1 nM, […] (sigma) of a final concentration of 1 uM and S-(5'-adenosine)-L-methionine chloride dihydrochloride (sigma) of a final concentration of 2.5 uM were mixed, then incubated for 30 minutes at room temperature, and transferred to an OptiPlate-384 well plate (PerkinElmer) at a volume of 6 uL per well, for which no PRMT5/[…] protein was added to the control wells. The test compound was 3-fold serially diluted into 10 concentrations, starting from a concentration of 1000 nM, and the series of diluted compounds were added to all wells except the control wells in the well plate using Tecan D300e. The well plate was subjected to centrifugation for 1 minute at 1000 rpm in a centrifuge, and then incubated for 15 minutes at 23°C. Histone H4 substrate of a final concentration of 5 nM was added to the well plate at 4 uL per well, centrifuged for 1 minute at 1000 rpm in a centrifuge, then placed in an incubator at 23°C and reacted for 45 minutes. Anti-histone H4 (symmetrical dimethyl R3) antibody (Abcam) was incubated with 50 ug/mL of AlphaScreen Protein A Acceptor beads (PerkinElmer) for 10 minutes at room temperature beforehand, and then added to the well plate at a volume of 10 uL per well. The mixture was reacted for 1 hour at room temperature. 50 Ug/mL of AlphaScreen Streptavidin Donor beads (PerkinElmer) was added at 10 uL per well, and reacted for 1 hour at room temperature. The signal values were detected for the well plate through the Alpha method using an Envision multifunctional microplate-reader, and the IC50 values for inhibition of the compounds on PRMT5/MET50 enzyme activity were calculated in Xlfit 5.0 software. Table 1. IC50 values for inhibition of the compounds on PRMT5+MTA enzyme activity

Chain of PRMT5-MTA (O14744 whole entry): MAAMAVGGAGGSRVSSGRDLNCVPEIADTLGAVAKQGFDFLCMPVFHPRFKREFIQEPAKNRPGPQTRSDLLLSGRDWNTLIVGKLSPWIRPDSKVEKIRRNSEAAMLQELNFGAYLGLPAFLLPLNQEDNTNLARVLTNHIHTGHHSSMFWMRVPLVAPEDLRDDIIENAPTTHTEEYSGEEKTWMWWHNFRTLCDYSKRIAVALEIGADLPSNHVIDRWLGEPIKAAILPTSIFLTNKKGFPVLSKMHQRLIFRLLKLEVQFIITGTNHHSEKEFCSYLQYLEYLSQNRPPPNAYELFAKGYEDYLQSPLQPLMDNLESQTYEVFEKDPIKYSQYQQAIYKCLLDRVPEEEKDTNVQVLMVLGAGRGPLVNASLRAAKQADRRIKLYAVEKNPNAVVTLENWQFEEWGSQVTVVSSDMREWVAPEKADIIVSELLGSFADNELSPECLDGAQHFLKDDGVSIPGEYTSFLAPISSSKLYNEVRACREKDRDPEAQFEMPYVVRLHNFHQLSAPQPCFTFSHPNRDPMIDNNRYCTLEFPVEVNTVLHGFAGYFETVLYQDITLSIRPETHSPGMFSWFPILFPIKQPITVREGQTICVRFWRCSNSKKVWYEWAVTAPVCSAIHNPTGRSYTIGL
Chain of PRMT5-MTA (Q9BQA1 whole entry partner): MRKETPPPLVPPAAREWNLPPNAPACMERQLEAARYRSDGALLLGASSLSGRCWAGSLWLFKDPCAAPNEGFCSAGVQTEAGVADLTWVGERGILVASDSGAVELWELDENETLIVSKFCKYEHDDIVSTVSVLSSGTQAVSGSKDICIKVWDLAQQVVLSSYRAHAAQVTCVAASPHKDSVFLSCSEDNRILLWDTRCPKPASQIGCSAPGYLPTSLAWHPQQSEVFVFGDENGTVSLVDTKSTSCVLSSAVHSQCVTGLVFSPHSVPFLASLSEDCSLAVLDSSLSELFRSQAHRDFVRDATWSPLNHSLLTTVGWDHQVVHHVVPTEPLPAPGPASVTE

Structure (SMILES) | IC50 [nM]
Cc1ncsc1-c1ccc(CN(C(=O)c2ccc3nc(N)c4cnn(C)c4c3c2)N(c2ncccn2)C2CC2)nc1 [Example 252, 4-amino-N'-cyclopropyl-1-methyl-N-((5-(4-methylthiazol-5-yl)pyridin-2-yl)methyl)-N'-(pyrimidin-2-yl)-1H-pyrazolo[4,3-c] quinoline-8-carbohydrazide] | 4.8
COc1cc2cc(C(=O)N(Cc3ccc(C(F)(F)F)cn3)N(C)c3ncccn3)ccc2nc1N [Example 319, 2-amino-3-methoxy-N'-methyl-N'-(pyrimidin-2-yl)-N-((5-(trifluoromethyl)pyridin-2-yl)methyl)quinoline-6-carbohydrazide] | 4.7
Cc1cc2cc(C(=O)N(Cc3ncccc3C(F)(F)F)N(C)c3ncccn3)ccc2nc1N [Example 41, 2-amino-N',3-dimethyl-N'-(pyrimidin-2-yl)-N-((3-(trifluoromethyl)pyridin-2-yl)methyl)quinoline-6-carbohydrazide] | 3.9
Cc1cc2nc(N)c3cnn(C)c3c2cc1C(=O)N(C)N1CCc2ncccc21 [Compound 114, 4-amino-N-(2,3-dihydro-1H-pyrrolo[3,2-b]pyridin-1-yl)-N,1,7-trimethyl-1H-pyraz olo[4,3-c]quinoline-8-carboxamide] | 4
Cc1cc2cc(C(=O)N(Cc3ccc(-c4cnn(C(F)(F)F)c4)cn3)Nc3ncccn3)ccc2nc1N [Example 249, 2-amino-3-methyl-N'-(pyrimidin-2-yl)-N-((5-(1-(trifluoromethyl)-1H-pyrazol-4-yl)pyridin-2-yl)methyl)quinoline-6-carbohy drazide] | 40
Cc1cc2cc(C(=O)N(Cc3cccc(C(F)(F)F)n3)N(C)c3ncccn3)ccc2nc1N [Example 103, 2-amino-N',3-dimethyl-N'-(pyrimidin-2-yl)-N-((6-(trifluoromethyl)pyridin-2-yl)methyl)quinoline-6-carbohydrazide] | 2.9
Cc1cc2cc(C(=O)N(Cc3ccc(C(F)(F)F)cn3)N(c3ncccn3)C3CC3)c(F)cc2nc1N [Example 269, 2-amino-N'-cyclopropyl-7-fluoro-3-methyl-N'-(pyrimidin-2-yl)-N-((5-(trifluoromethyl)pyridin-2-yl)methyl)quinoline-6-car bohydrazide] | 5.7
Cc1cc2nc(N)c3cnn(C)c3c2cc1C(=O)N1CC(C)CN1c1ccc(C(F)(F)F)cn1 (stereo not shown) [Example 389, (4-amino-1,7-dimethyl-1H-pyrazolo[4,3-c]quinolin-8-yl)(4-methyl-2-(5-(trifluoromethyl)pyridin-2-yl)pyrazolidin-1-yl)met hanone] | 6.3
Cc1cc2nc(N)c3c(cnn3C)c2cc1C(=O)N1CCCN1c1ncccc1F [Example 501, (4-amino-3,7-dimethyl-3H-pyrazolo[3,4-c]quinolin-8-yl)(2-(3-fluoropyridin-2-yl)pyrazolidin-1-yl)methanone] | 4.4
CCc1cc2nc(N)c3cnn(C)c3c2cc1C(=O)N1CCCN1c1ccc(C(F)(F)F)cn1 [Example 496, (4-amino-7-ethyl-1-methyl-1H-pyrazolo[4,3-c]quinolin-8-yl)(2-(5-(trifluoromethyl)pyridin-2-yl)pyrazolidin-1-yl)methanone] | 3.4
CN(C(=O)c1cc2c(cc1F)nc(N)c1cnn(C)c12)N1CCc2cc(C(F)(F)F)cnc21 [Example 31, 4-amino-7-fluoro-N,1-dimethyl-N-(5-(trifluoromethyl)-2,3-dihydro-1H-pyrrolo[2,3-b]pyridin-1-yl)-1H-pyrazolo[4,3-c]quinoline-8-carboxamide] | 3.5
Cc1cc2cc(C(=O)N(Cc3ccc(P(C)(C)=O)cn3)N(C)c3ncccn3)ccc2nc1N [Example 297, 2-amino-N-((5-(dimethylphosphoryl)pyridin-2-yl)methyl)-N',3-dimethyl-N'-(pyrimidin-2-yl)quinoline-6-carbohydrazide] | 6.4
Cc1cc2cc(C(=O)N3CC(C)CN3c3ncccc3F)c(F)cc2nc1N (stereo not shown) [Example 333, (2-amino-7-fluoro-3-methylquinolin-6-yl)(2-(3-fluoropyridin-2-yl)-4-methylpyrazolidin-1-yl)methanone] | 7.7
CN(c1ncccn1)N(Cc1ccc(C(F)(F)F)cn1)C(=O)c1cc2c(cc1Cl)nc(N)c1cnn(C)c12 [Example 17, 4-amino-7-chloro-N',1-dimethyl-N'-(pyrimidin-2-yl)-N-((5-(trifluoromethyl)pyridin-2-yl)methyl)-1H-pyrazolo[4,3-c]quinoline-8-carbohydrazide] | 7
Cn1ncc2c(N)nc3cc(C(F)(F)F)c(C(=O)N4CCCN4c4ccc(C(F)(F)F)cn4)cc3c21 [Example 505, (4-amino-1-methyl-7-trifluoromethyl-1H-pyrazolo[4,3-c]quinolin-8-yl)(2-(5-(trifluoromethyl)pyridin-2-yl)pyrazolidin-1-yl) methanone] | 3
CN(C(=O)c1ccc2nc(N)c3c(c2c1)COC3)N(C)c1ccc(C(F)(F)F)cn1 [Example 55, 4-amino-N,N'-dimethyl-N'-(5-(trifluoromethyl)pyridin-2-yl)-1,3-dihydrofuro[3,4-c]quinoline-8-carbohydrazide] | 4.6
Cc1cc2cc(C(=O)N3CCCN3c3ccc(C(F)(F)F)cn3)ccc2nc1N [Example 337, (2-amino-3-methylquinolin-6-yl)(2-(5-(trifluoromethyl)pyridin-2-yl)pyrazolidin-1-yl)methanone] | 59
Nc1nc2ccc(C(=O)N(Cc3ccc(C(F)(F)F)cn3)N(c3ncccn3)C3CC3)cc2cc1CF [Example 323, 2-amino-N'-cyclopropyl-3-(fluoromethyl)-N'-(pyrimidin-2-yl)-N-((5-(trifluoromethyl)pyridin-2-yl)methyl)quinoline-6-carbohydrazide] | 7.1
Cc1cc2cc(C(=O)N(Cc3cnc(Br)cn3)N(C)c3ncccn3)ccc2nc1N [Example 282, 2-amino-N-((5-bromopyrazin-2-yl)methyl)-N',3-dimethyl-N'-(pyrimidin-2-yl)quinoline-6-carbohydrazide] | 4.5

Now those with a lower IC50, led by results:

IC50 [nM] | Structure (SMILES)
2.3 | CCc1cccnc1N(C)N(Cc1ccc(C(F)(F)F)cn1)C(=O)c1ccc2nc(N)c(C)cc2c1 [Example 134, 2-amino-N'-(3-ethylpyridin-2-yl)-N',3-dimethyl-N-((5-(trifluoromethyl)pyridin-2-yl)methyl)quinoline-6-carbohydrazide]
2 | COCCN(c1ncccn1)N(Cc1ccc(C(F)(F)F)cn1)C(=O)c1ccc2nc(N)c(C)cc2c1 [Example 4, 2-amino-N'-(2-methoxyethyl)-3-methyl-N'-(pyrimidin-2-yl)-N-((5-(trifluoromethyl)pyridin-2-yl)methyl)quinoline-6-carbohydrazide]
2 | Cc1cc2cc(C(=O)N(Cc3ccc(C4(O)COC4)cn3)N(C)c3ncccn3)ccc2nc1N [Example 285, 2-amino-N-((5-(3-hydroxyoxetan-3-yl)pyridin-2-yl)methyl)-N',3-dimethyl-N'-(pyrimidin-2-yl)quinoline-6-carbohydrazide]
1.9 | Cc1cc(N)nc2ccc(C(=O)N(Cc3ccc(C(F)(F)F)cn3)N(C)c3ncccn3)cc12 [Compound 30, 2-amino-N',4-dimethyl-N'-(pyrimidin-2-y 1)-N-((5-(trifluoromethyl)pyridin-2-yl)methyl)quinoline-6-carbohydrazide]
1.9 | Cc1cc2cc(C(=O)N(Cc3ccc(C(F)(F)F)cn3)N(C)c3ncccc3Br)ccc2nc1N [Example 106, 2-amino-N'-(3-bromopyridin-2-yl)-N',3-d imethyl-N-((5-(trifluoromethyl)pyridin-2-yl)methyl)quinoline-6-carbohydrazide]
1.6 | CN(c1ncccn1)N(Cc1ccc(C(F)(F)F)cn1)C(=O)c1ccc2nc(N)cc(C3CC3)c2c1 [Example 29, 2-amino-4-cyclopropyl-N'-methyl-N'-(pyrimidin-2-yl)-N-((5-(trifluoromethyl)pyridin-2-yl)methyl)quinoline-6-carbohydrazide]
1.3 | Cc1cc2cc(C(=O)N(Cc3ccc(C(F)(F)F)cn3)N(C)c3ncc(P(C)(C)=O)cn3)ccc2nc1N [Example 296, 2-amino-N'-(5-(dimethylphosphoryl)pyrimidin-2-yl)-N',3-dimethyl-N-((5-(trifluoromethyl)pyridin-2-yl)methyl)quinoline-6-carbohydrazide]
1.3 | Cc1cc2nc(N)c3cnn(C)c3c2cc1C(=O)N1CCC(=O)N1c1ccc(C(F)(F)F)cn1 [Example 463, 1-(4-amino-1,7-dimethyl-1H-pyrazolo[4,3-c]quinoline-8-carbonyl)-2-(5-(trifluoromethyl)pyridin-2-yl)pyrazolidin-3-one]
1.3 | Cc1cc2cc(C(=O)N(Cc3ccc(C4CC4)cc3F)N(C)c3nccc4nccnc34)ccc2nc1N [Example 167, 2-amino-N-(4-cyclopropyl-2-fluorobenzy 1)-N',3-dimethyl-N'-(pyrido[3,4-b]pyrazin-5-yl)quinoline-6-carbohydrazide]
